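Cells were grown in 96-well plates and exposed to each compound for 48 hours at five concentrations; endpoints were interpolated linearly between bracketing concentrations, or set to the highest concentration if not reached. GI50 is the concentration that inhibits growth by half.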 Calls of active or inactive are those of the source. Rule as the data show it: active = GI50 up to about 1.1 µM and inactive = higher.
What was measured:
Test in all cases: inhibition of tumour cell growth, NCI panel, 48 h
786-0 = test system: 786-0
CAKI-1 = test system: CAKI-1
CCRF-CEM = test system: CCRF-CEM
COLO 205 = test system: COLO 205
DU-145 = test system: DU-145
EKVX = test system: EKVX
Hs-578T = test system: Hs-578T
K562 = test system: K562
MDA-MB-435 = test system: MDA-MB-435
MDA-N = test system: MDA-N
NCI-H460 = test system: NCI-H460
NCI/ADR-RES = test system: NCI/ADR-RES
OVCAR-3 = test system: OVCAR-3
RPMI-8226 = test system: RPMI-8226
SF-539 = test system: SF-539
SNB-75 = test system: SNB-75
T47D = test system: T47D
TK-10 = test system: TK-10
UACC-62 = test system: UACC-62
UO-31 = test system: UO-31

Measured: GI50

CC(C)NC(=O)CN1CCN(C2=CC(=O)c3c(O)ccc(O)c3C2=O)CC1
inactive: 786-0 16.4 µM | CAKI-1 26.2 µM | CCRF-CEM 8.65 µM | COLO 205 3 µM | DU-145 16.1 µM | EKVX 19.3 µM | Hs-578T 25.9 µM | K562 20.6 µM | MDA-MB-435 1.93 µM | MDA-N 2.79 µM | NCI-H460 13 µM | NCI/ADR-RES 3.9 µM | OVCAR-3 2.58 µM | RPMI-8226 24.9 µM | SF-539 16.7 µM | SNB-75 18.2 µM | T47D 8.69 µM | TK-10 17.1 µM | UACC-62 5.18 µM | UO-31 18.3 µM

C[N+]12CCCCC1C(CN1C(=O)c3ccccc3C1=O)CCC2 (stereo not given)
inactive: 786-0 > 100 µM | CAKI-1 > 100 µM | CCRF-CEM > 100 µM | COLO 205 > 100 µM | DU-145 > 100 µM | EKVX > 100 µM | Hs-578T > 100 µM | K562 > 100 µM | MDA-MB-435 > 100 µM | MDA-N > 100 µM | NCI-H460 > 100 µM | NCI/ADR-RES > 100 µM | OVCAR-3 > 100 µM | RPMI-8226 > 100 µM | SF-539 > 100 µM | SNB-75 > 100 µM | T47D > 100 µM | TK-10 > 100 µM | UACC-62 > 100 µM | UO-31 > 100 µM

COC(=O)C1=NN2c3ccccc3C(=O)OCCC2C1 (stereo not given)
inactive: 786-0 > 100 µM | CAKI-1 > 100 µM | CCRF-CEM > 100 µM | COLO 205 > 100 µM | DU-145 > 100 µM | EKVX > 100 µM | Hs-578T > 100 µM | K562 > 100 µM | MDA-MB-435 > 100 µM | MDA-N > 100 µM | NCI-H460 > 100 µM | NCI/ADR-RES > 100 µM | OVCAR-3 > 100 µM | RPMI-8226 > 100 µM | SF-539 > 100 µM | SNB-75 > 100 µM | T47D > 100 µM | TK-10 > 100 µM | UACC-62 > 100 µM | UO-31 > 100 µM

CCCCCCCCCCC/C=C(/C(=O)CCCO[Si](C)(C)C(C)(C)C)C(=O)OC
inactive: 786-0 > 100 µM | CAKI-1 > 100 µM | CCRF-CEM > 100 µM | COLO 205 > 100 µM | DU-145 > 100 µM | EKVX > 100 µM | Hs-578T > 100 µM | K562 > 100 µM | MDA-MB-435 > 100 µM | MDA-N > 100 µM | NCI-H460 > 100 µM | NCI/ADR-RES > 100 µM | OVCAR-3 > 100 µM | RPMI-8226 > 100 µM | SF-539 > 100 µM | SNB-75 > 100 µM | T47D > 100 µM | TK-10 > 100 µM | UACC-62 > 100 µM | UO-31 > 100 µM

Reference: ChEMBL document CHEMBL1201862, “PubChem BioAssay data set” (2004)
